Laboratory results published in ChEMBL document CHEMBL1131910, “Exploratory solid-phase synthesis of factor Xa inhibitors: discovery and application of p3-heterocyclic amides as novel types of non-basic arginine surrogates” (Bioorg Med Chem Lett, 1999).

Key:
Coagulation factor X [1] = target: T1, Coagulation factor X (Homo sapiens, UniProt P00742); assay: In vitro inhibition of human Factor Xa.
Plasminogen [2] = target: T2, Plasminogen (Homo sapiens, UniProt P00747); assay: In vitro inhibition of human thrombolytic protease Plasmin.
T2 sequence (P00747 97-580 limits assumed): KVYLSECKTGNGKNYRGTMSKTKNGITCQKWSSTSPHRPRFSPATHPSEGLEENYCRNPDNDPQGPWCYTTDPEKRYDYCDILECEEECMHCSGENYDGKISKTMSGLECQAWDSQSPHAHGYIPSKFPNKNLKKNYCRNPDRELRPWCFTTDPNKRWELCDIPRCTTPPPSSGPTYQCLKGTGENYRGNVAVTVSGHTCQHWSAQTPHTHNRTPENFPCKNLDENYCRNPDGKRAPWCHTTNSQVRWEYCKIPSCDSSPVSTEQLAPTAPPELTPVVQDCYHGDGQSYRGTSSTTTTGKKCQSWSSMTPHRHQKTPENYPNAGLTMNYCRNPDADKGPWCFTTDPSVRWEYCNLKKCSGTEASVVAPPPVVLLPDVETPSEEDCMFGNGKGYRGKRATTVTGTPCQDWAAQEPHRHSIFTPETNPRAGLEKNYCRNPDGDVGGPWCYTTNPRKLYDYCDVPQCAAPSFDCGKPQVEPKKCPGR
T2 sequence (P00747 581-810 limits assumed): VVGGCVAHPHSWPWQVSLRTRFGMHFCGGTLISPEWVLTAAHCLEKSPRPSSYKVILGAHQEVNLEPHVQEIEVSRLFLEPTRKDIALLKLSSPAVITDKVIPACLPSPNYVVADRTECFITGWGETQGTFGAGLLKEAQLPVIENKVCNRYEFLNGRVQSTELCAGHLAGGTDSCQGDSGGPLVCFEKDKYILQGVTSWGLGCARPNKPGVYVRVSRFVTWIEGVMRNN

Prothrombin [3] = target: T3, Prothrombin (Homo sapiens, UniProt P00734); assay: In vitro inhibition of human Thrombin (FIIa).
Serine protease 1 [4] = target: T4, Serine protease 1 (Homo sapiens, UniProt P07477); assay: In vitro inhibition of human trypsin.
T4 sequence (P07477 whole entry): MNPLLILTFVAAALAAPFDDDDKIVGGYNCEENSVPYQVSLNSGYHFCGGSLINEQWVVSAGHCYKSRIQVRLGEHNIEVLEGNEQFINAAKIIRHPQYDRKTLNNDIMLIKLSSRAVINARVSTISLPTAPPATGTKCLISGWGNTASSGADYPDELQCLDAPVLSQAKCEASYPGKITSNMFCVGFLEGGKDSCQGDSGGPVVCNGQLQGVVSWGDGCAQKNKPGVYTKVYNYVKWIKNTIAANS

Plasminogen [5] = target: T2, Plasminogen; assay: In vitro inhibition against human thrombolytic protease Plasmin was evaluated; Inactive
Serine protease 1 [6] = target: T4, Serine protease 1; assay: In vitro inhibition against human trypsin was evaluated; Inactive
Coagulation factor X [7] = target: T1, Coagulation factor X; assay: In vitro inhibition against human Factor Xa (FXa) was evaluated; Inactive
Prothrombin [8] = target: T3, Prothrombin; assay: In vitro inhibition against human Thrombin ( FIIa) was evaluated; Inactive

T1 sequence (P00742 41-179 limits assumed): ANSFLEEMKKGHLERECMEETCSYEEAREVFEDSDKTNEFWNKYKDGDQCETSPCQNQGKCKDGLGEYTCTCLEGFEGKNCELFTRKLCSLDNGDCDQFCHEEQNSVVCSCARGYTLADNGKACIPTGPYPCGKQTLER
T1 sequence (P00742 235-488 limits assumed): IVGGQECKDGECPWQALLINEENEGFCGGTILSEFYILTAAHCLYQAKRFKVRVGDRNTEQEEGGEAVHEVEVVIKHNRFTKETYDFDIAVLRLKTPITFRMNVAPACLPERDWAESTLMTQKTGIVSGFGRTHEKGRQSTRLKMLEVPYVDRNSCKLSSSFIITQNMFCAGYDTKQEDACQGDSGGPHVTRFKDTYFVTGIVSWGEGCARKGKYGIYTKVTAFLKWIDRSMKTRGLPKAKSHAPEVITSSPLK

IC50 (Coagulation factor X [1]) | IC50 (Plasminogen [2]) | IC50 (Prothrombin [3]) | IC50 (Serine protease 1 [4]) | IC50 (Plasminogen [5]) | IC50 (Serine protease 1 [6]) | IC50 (Coagulation factor X [7]) | IC50 (Prothrombin [8]) | SMILES
44.4 nM | 1440 nM | 1270 nM | 59.2 nM | – | – | – | – | N=C(N)N1CCC[C@H](NC(=O)CNC(=O)[C@@H](CCNC(=O)c2ccc3ccccc3n2)NS(=O)(=O)Cc2ccccc2)C1O (some centres undefined)
313 nM | > 2500 nM | > 2500 nM | > 31.2 nM | – | – | – | – | N=C(N)N1CCC[C@H](NC(=O)CNC(=O)[C@@H](CCNC(=O)c2cncc(Br)c2)NC(=O)OCc2ccccc2)C1O (some centres undefined)
169 nM | 1140 nM | > 2500 nM | 20.4 nM | – | – | – | – | N=C(N)N1CCC[C@H](NC(=O)CNC(=O)[C@@H](CCNC(=O)c2cnc3ccccc3c2)NC(=O)OCc2ccccc2)C1O (some centres undefined)
311 nM | 1480 nM | > 2500 nM | 152 nM | – | – | – | – | N=C(N)N1CCC[C@H](NC(=O)CNC(=O)[C@@H](CNC(=O)c2cnccn2)NS(=O)(=O)Cc2ccccc2)C1O (some centres undefined)
10.6 nM | 1060 nM | > 2500 nM | 160 nM | – | – | – | – | N=C(N)N1CCC[C@H](NC(=O)CNC(=O)[C@@H](CCNC(=O)c2cncc(Br)c2)NS(=O)(=O)Cc2ccccc2)C1O (some centres undefined)
79.1 nM | 2500 nM | > 2500 nM | 561 nM | – | – | – | – | N=C(N)N1CCC[C@H](NC(=O)CNC(=O)[C@@H](CCNC(=O)c2cccnc2)NS(=O)(=O)Cc2ccccc2)C1O (some centres undefined)
20.5 nM | 1140 nM | > 2500 nM | 223 nM | – | – | – | – | N=C(N)N1CCC[C@H](NC(=O)CNC(=O)[C@@H](CCNC(=O)c2ccccn2)NS(=O)(=O)Cc2ccccc2)C1O (some centres undefined)
5 nM | 521 nM | > 2500 nM | 166 nM | – | – | – | – | N=C(N)N1CCC[C@H](NC(=O)CNC(=O)[C@@H](CCNC(=O)c2cnccn2)NS(=O)(=O)Cc2ccccc2)C1O (some centres undefined)
10.6 nM | 250 nM | 537 nM | 111 nM | – | – | – | – | N=C(N)N1CCC[C@H](NC(=O)CNC(=O)[C@@H](CCNC(=O)c2cnc3ccccc3c2)NS(=O)(=O)Cc2ccccc2)C1O (some centres undefined)
> 2500 nM | – | > 2500 nM | – | Not Active | Not Active | – | – | N=C(N)N1CCC[C@H](NC(=O)CNC(=O)[C@@H](CCNC(=O)c2nc3ccccc3nc2O)NS(=O)(=O)Cc2ccccc2)C1O (some centres undefined)
6.1 nM | 367 nM | > 2500 nM | 26.6 nM | – | – | – | – | N=C(N)N1CCC[C@H](NC(=O)CNC(=O)[C@@H](CCNC(=O)c2ccc(O)nc2)NS(=O)(=O)Cc2ccccc2)C1O (some centres undefined)
313 nM | > 2500 nM | > 2500 nM | > 2500 nM | – | – | – | – | N=C(N)N1CCC[C@H](NC(=O)CNC(=O)[C@@H](CCNC(=O)c2nccc3ccccc23)NC(=O)OCc2ccccc2)C1O (some centres undefined)
– | – | – | – | Not Active | Not Active | Not Active | Not Active | N=C(N)N1CCC[C@H](NC(=O)CNC(=O)[C@@H](CCNC(=O)c2ccccc2)NS(=O)(=O)Cc2ccccc2)C1O (some centres undefined)
346 nM | 3270 nM | > 2500 nM | 74.5 nM | – | – | – | – | N=C(N)N1CCC[C@H](NC(=O)CNC(=O)[C@@H](CCNC(=O)c2cn[nH]c2)NC(=O)OCc2ccccc2)C1O (some centres undefined)
4.9 nM | 730 nM | > 2500 nM | 97.8 nM | – | – | – | – | N=C(N)N1CCC[C@H](NC(=O)CNC(=O)[C@@H](CCNC(=O)c2nccc3ccccc23)NS(=O)(=O)Cc2ccccc2)C1O (some centres undefined)
15 nM | 673 nM | 2500 nM | 324 nM | – | – | – | – | N=C(N)N1CCC[C@H](NC(=O)CNC(=O)[C@@H](CCCNC(=O)c2cnccn2)NS(=O)(=O)Cc2ccccc2)C1O (some centres undefined)
0.7 nM | – | > 2500 nM | 75 nM | – | – | – | – | N=C(N)NCCCC(NS(=O)(=O)Cc1ccccc1)C(=O)NCC(=O)N[C@H]1CCCN(C(=N)N)C1O (some centres undefined)
5.6 nM | 700 nM | 1770 nM | 4.21 nM | – | – | – | – | N=C(N)N1CCC[C@H](NC(=O)CNC(=O)[C@@H](CCNC(=O)c2cnnc3ccccc23)NS(=O)(=O)Cc2ccccc2)C1O (some centres undefined)
106 nM | 2030 nM | 2500 nM | 30 nM | – | – | – | – | N=C(N)N1CCC[C@H](NC(=O)CNC(=O)[C@@H](CCNC(=O)c2cnccn2)NC(=O)OCc2ccccc2)C1O (some centres undefined)
232 nM | > 2500 nM | > 2500 nM | 40.3 nM | – | – | – | – | Cc1cnc(C(=O)NCC[C@@H](NC(=O)OCc2ccccc2)C(=O)NCC(=O)N[C@H]2CCCN(C(=N)N)C2O)cn1 (some centres undefined)
